Source: patent publication US10294234B2, “HIV inhibitor compounds” (priority 2017, dated 2019)

Assays:
[1] = system: HIV-1 (IIIB) in MT-4 cells; experiment: MT-4 HIV assay; format: cell-based; settings: Human immunodeficiency virus 1, MT4, 120 h; HIV-1 (IIIB), MT-4 cells, 5 days, Cell Titer Glo; read-out: EC50
In short: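 MT-4 cells infected with HIV-1 IIIB (1:250 stock dilution) were incubated with 1:3 serially diluted compounds in RPMI with 10% FBS for 5 days at 37 °C. Cell Titer Glo luminescence was the readout. Plates included mock-infected wells, no-drug wells and 5 uM AZT controls.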

[2] = microsomes
In short: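 Test compounds at 1 uM incubated in duplicate with dog, rat and human liver microsomes (0.5 mg/mL protein) plus NADPH-regenerating system; sampled at 2, 12, 25, 45 and 65 minutes. Parent remaining monitored by LC/MS/MS; Clint calculated from in vitro t1/2.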

SMILES | EC50 [1] | Human Pred Cl. [2] | Rat. Pred. Cl. [2] | Dog. Pred. Cl. ([2]; dog)
COC(=O)N[C@H](C(=O)N[C@@H](Cc1ccc(C#Cc2ccc(N3CC4CC(C3)N4C3COC3)nc2)cc1)[C@@H](O)CN(Cc1c(F)cc(-c2ccccn2)cc1F)NC(=O)[C@@H](NC(=O)OC)C(C)(C)C(F)(F)F)C(C)(C)C(F)(F)F [Example 175, Methyl ((5S,8S,9S,14S)-11-(2,6-difluoro-4-(pyridin-2-yl)benzyl)-16,16,16-trifluoro-9-hydroxy-15,15-dimethyl-8-(4-((6-(6-(oxetan-3-yl)-3,6-diazabicyclo[3.1.1]heptan-3-yl)pyridin-3-yl)ethynyl)benzyl)-3,6,13-trioxo-5-(1,1,1-trifluoro-2-methylpropan-2-yl)-2-oxa-4,7,11,12-tetraazahexadecan-14-yl)carbamate] | 2.17 nM | 0.67 L/H/kg | 0.7 L/H/kg | –
COC(=O)N[C@H](C(=O)N[C@@H](Cc1ccc(C#Cc2ccc(N3CC4COCC(C3)N4C3COC3)nc2)cc1)[C@@H](O)CN(Cc1c(F)cc(-c2ccccn2)cc1F)NC(=O)[C@@H](NC(=O)OC)C(C)(C)C(F)(F)F)C(C)(C)C(F)(F)F [Example 179, Methyl ((5S,8S,9S,14S)-11-(2,6-difluoro-4-(pyridin-2-yl)benzyl)-16,16,16-trifluoro-9-hydroxy-15,15-dimethyl-8-(4-((6-(9-(oxetan-3-yl)-3-oxa-7,9-diazabicyclo[3.3.1]nonan-7-yl)pyridin-3-yl)ethynyl)benzyl)-3,6,13-trioxo-5-(1,1,1-trifluoro-2-methylpropan-2-yl)-2-oxa-4,7,11,12-tetraazahexadecan-14-yl)carbamate] | 3.55 nM | 0.33 L/H/kg | 0.27 L/H/kg | –
COC(=O)N[C@H](C(=O)N[C@@H](Cc1ccc(C#Cc2ccc(N3CC4CCC(C3)N4C3COC3)nc2)cc1)[C@@H](O)CN(Cc1c(F)cc(-c2ccn(C(F)F)n2)cc1F)NC(=O)[C@@H](NC(=O)OC1COC1)C(C)(C)C)C(C)(C)C(F)(F)F [Example 184, methyl ((2S)-1-(((2S,3S)-4-(1-(4-(1-(difluoromethyl)-1H-pyrazol-3-yl)-2,6-difluorobenzyl)-2-((S)-3,3-dimethyl-2-(((oxetan-3-yloxy)carbonyl)amino)butanoyl)hydrazinyl)-3-hydroxy-1-(4-((6-(8-(oxetan-3-yl)-3,8-diazabicyclo[3.2.1]octan-3-yl)pyridin-3-yl)ethynyl)phenyl)butan-2-yl)amino)-4,4,4-trifluoro-3,3-dimethyl-1-oxobutan-2-yl)carbamate] | 3.66 nM | <0.11 L/H/kg | <0.18 L/H/kg | –
CCC(=O)N[C@H](C(=O)NN(Cc1c(F)cc(-c2ccn(C(F)F)n2)cc1F)C[C@H](O)[C@H](Cc1ccc(C#Cc2ccc(N3CC4CCC(C3)N4C3COC3)nc2)cc1)NC(=O)[C@@H](NC(=O)OC)C(C)(C)C(F)(F)F)C(C)(C)C [Example 185, Methyl ((2S)-1-(((2S,3S)-4-(1-(4-(1-(difluoromethyl)-1H-pyrazol-3-yl)-2,6-difluorobenzyl)-2-((S)-3,3-dimethyl-2-propionamidobutanoyl)hydrazinyl)-3-hydroxy-1-(4-((6-(8-(oxetan-3-yl)-3,8-diazabicyclo[3.2.1]octan-3-yl)pyridin-3-yl)ethynyl)phenyl)butan-2-yl)amino)-4,4,4-trifluoro-3,3-dimethyl-1-oxobutan-2-yl)carbamate] | 2.58 nM | 0.32 L/H/kg | 0.31 L/H/kg | –
COC(=O)N[C@H](C(=O)N[C@@H](Cc1ccc(C#Cc2cnc(N3CC4CCC(C3)N4C3COC3)nc2)cc1)[C@@H](O)CN(Cc1c(F)cc(-c2ccn(C(F)F)n2)cc1F)NC(=O)[C@@H](NC(=O)C1CC1)C(C)(C)C(F)(F)F)C(C)(C)C(F)(F)F [Example 186, Methyl ((2S)-1-(((2S,3S)-4-(2-((S)-2-(cyclopropanecarboxamido)-4,4,4-trifluoro-3,3-dimethylbutanoyl)-1-(4-(1-(difluoromethyl)-1H-pyrazol-3-yl)-2,6-difluorobenzyl) hydrazinyl)-3-hydroxy-1-(4-((2-(8-(oxetan-3-yl)-3,8-diazabicyclo[3.2.1]octan-3-yl)pyrimidin-5-yl)ethynyl)phenyl)butan-2-yl)amino)-4,4,4-trifluoro-3,3-dimethyl-1-oxobutan-2-yl)carbamate] | 4.74 nM | <0.11 L/H/kg | – | –
COC(=O)N[C@H](C(=O)NN(Cc1c(F)cc(-c2ccn(C(F)F)n2)cc1F)C[C@H](O)[C@H](Cc1ccc(-c2cnc(N3CC4CCC(C3)N4C3COC3)nc2)cc1)NC(=O)[C@@H](NC(=O)OC)C(C)(C)C(F)(F)F)C(C)(C)C [Example 192, methyl ((5S,8S,9S,14S)-11-(4-(1-(difluoromethyl)-1H-pyrazol-3-yl)-2,6-difluorobenzyl)-9-hydroxy-15,15-dimethyl-8-(4-(2-(8-(oxetan-3-yl)-3,8-diazabicyclo[3.2.1]octan-3-yl)pyrimidin-5-yl)benzyl)-3,6,13-trioxo-5-(1,1,1-trifluoro-2-methylpropan-2-yl)-2-oxa-4,7,11,12-tetraazahexadecan-14-yl)carbamate] | 2.89 nM | 0.22 L/H/kg | 0.36 L/H/kg | 1.04 L/H/kg
COC(=O)N[C@H](C(=O)N[C@@H](Cc1ccc(-c2ccc(N3CC4CCC(C3)N4C3COC3)nc2)cc1)[C@@H](O)CN(Cc1c(F)cc(-c2ccn(CC(F)F)n2)cc1F)NC(=O)[C@@H](NC(=O)OC)C(C)(C)C(F)(F)F)C(C)(C)C(F)(F)F [Example 195, methyl ((5S,8S,9S,14S)-11-(4-(1-(2,2-difluoroethyl)-1H-pyrazol-3-yl)-2,6-difluorobenzyl)-16,16,16-trifluoro-9-hydroxy-15,15-dimethyl-8-(4-(6-(8-(oxetan-3-yl)-3,8-diazabicyclo[3.2.1]octan-3-yl)pyridin-3-yl)benzyl)-3,6,13-trioxo-5-(1,1,1-trifluoro-2-methylpropan-2-yl)-2-oxa-4,7,11,12-tetraazahexadecan-14-yl)carbamate] | 2.76 nM | 0.12 L/H/kg | 0.52 L/H/kg | –
COC(=O)N[C@H](C(=O)N[C@@H](Cc1ccc(-c2cnc(N3CC4CCC(C3)N4C3COC3)nc2)cc1)[C@@H](O)CN(Cc1c(F)cc(-c2ccn(CC(F)F)n2)cc1F)NC(=O)[C@@H](NC(=O)OC)C(C)(C)C(F)(F)F)C(C)(C)C(F)(F)F [Example 197, Methyl ((5S,8S,9S,14S)-11-(4-(1-(2,2-difluoroethyl)-1H-pyrazol-3-yl)-2,6-difluorobenzyl)-16,16,16-trifluoro-9-hydroxy-15,15-dimethyl-8-(4-(2-(8-(oxetan-3-yl)-3,8-diazabicyclo[3.2.1]octan-3-yl)pyrimidin-5-yl)benzyl)-3,6,13-trioxo-5-(1,1,1-trifluoro-2-methylpropan-2-yl)-2-oxa-4,7,11,12-tetraazahexadecan-14-yl)carbamate] | 2.61 nM | <0.11 L/H/kg | 0.32 L/H/kg | –
